Laboratory results as given in patent US20100099756A1, “USES OF INCENSOLE, INCENSOLE ACETATE AND DERIVATIVES THEREOF” (YISSUM RESEARCH DEVELOPMENT COMPANY OF THE HEBREW …, priority 2006, published 2010).

Assays:
NO generation = assay: Nitric oxide (NO) levels in LPS-activated murine peritoneal macrophages; format: cell-based, mice
Experimental: (A(1)) Representative Western Blot bands of Cox2 are shown with tubulin as reference. (A(2)) COX-2 levels were measured in RAW 264.7 cells incubated for 24 hrs. with LPS in the presence or in the absence of IA (60 μM/ml); **, p<0.001. (B) Murine peritoneal macrophages were activated by LPS (1 μg/ml for 24 hrs.) in absence of IA or in the presence of IA at indicated concentrations. NO generation was determined by measuring the nitrite accumulated in the supernatants; **, p<0.001. (C) Generation of ROS by RAW 264.7 macrophages (5×10^5 cells in 0.5 ml Hanks' balanced salt solution) was measured by chemiluminescence. Cells were pre-incubated with various doses of IA for 24 hrs before luminol (10 μl) and zymosan (30 μl) were added to the tubes; *, p<0.05; **, p<0.01; ***, p<0.001
Peritoneal macrophages were harvested from C57BL/6 female mice four days after intraperitoneal injection of 1.5 ml of a 3% thioglycollate medium (Difco, N.J., USA). […]
Nitric Oxide (NO) Levels. […] NO generation was determined by measuring the nitrite accumulated in the supernatants (100 μl) of the IA-treated macrophages as follows. […] Following 10 min of incubation at room temperature, the color production was measured at 550 nm with an ELISA reader. The concentration of the nitrite was calculated according to a standard curve.

TRPV3 = target: T1, TRPV3 (Mus musculus, UniProt Q8K424); assay: Calcium imaging of TRPV3+/+ and TRPV3−/− primary keratinocytes; format: cell-based; set-up: endogenous in cells; host or cells: primary keratinocytes from TRPV3+/+ mouse pups (day 1-4); TRPV3-/- cells as control; conditions: IA 500 μM
T1 sequence (Q8K424 1-791): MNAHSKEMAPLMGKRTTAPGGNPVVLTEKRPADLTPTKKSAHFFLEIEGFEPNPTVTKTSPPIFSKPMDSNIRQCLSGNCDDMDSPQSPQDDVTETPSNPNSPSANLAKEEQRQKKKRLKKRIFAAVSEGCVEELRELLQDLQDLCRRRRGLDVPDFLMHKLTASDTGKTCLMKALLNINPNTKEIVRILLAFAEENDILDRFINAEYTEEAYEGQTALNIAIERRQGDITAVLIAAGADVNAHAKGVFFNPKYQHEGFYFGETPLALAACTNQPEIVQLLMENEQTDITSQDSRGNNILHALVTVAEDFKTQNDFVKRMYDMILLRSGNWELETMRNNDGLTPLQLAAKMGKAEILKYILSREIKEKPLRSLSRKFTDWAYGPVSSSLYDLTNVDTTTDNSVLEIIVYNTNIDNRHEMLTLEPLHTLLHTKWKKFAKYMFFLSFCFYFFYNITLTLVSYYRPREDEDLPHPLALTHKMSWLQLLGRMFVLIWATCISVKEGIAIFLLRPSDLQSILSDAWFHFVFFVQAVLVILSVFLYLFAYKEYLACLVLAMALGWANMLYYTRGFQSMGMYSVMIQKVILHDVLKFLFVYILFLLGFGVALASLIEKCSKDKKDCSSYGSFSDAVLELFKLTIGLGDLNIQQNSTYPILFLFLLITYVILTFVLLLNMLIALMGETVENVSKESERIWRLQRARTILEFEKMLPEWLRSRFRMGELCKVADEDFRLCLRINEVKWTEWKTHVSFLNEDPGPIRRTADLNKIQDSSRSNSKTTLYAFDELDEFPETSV
Description: HEK293 cells were transiently transfected with a rat TRPV2 plasmid using lipofectamine reagent (Invitrogen, Carlsbad, Calif.) according to manufacturer's protocol. They were then maintained in Dulbecco's modified Eagle Medium/10% fetal calf serum supplemented with Penicillin, Streptomycin, and L-glutamine. Primary keratinocytes from TRPV3-deficient and TRPV3+/+ mouse pups (day 1-4) were harvested and cultured as described previously [Chung, M. K., Lee, H., Mizuno, A., Suzuki, M. & Caterina, M. J. TRPV3 and TRPV4 mediate warmth-evoked currents in primary mouse keratinocytes. J. Biol. Chem. 279, 21569-21575 (2004)].
Calcium imaging of TRPV3^+/+ and TRPV3^−/− keratinocytes. Primary keratinocytes from TRPV3-deficient and WT mouse pups (day 1-4) were harvested and cultured as described [Chung, M. K., Lee, H., Mizuno, A., Suzuki, M. & Caterina, M. J. TRPV3 and TRPV4 mediate warmth-evoked currents in primary mouse keratinocytes. J. Biol. Chem. 279, 21569-21575 (2004)].
Cells were plated on glass coverslips (10^5/cm^2) and incubated for 48-60 h, then loaded with fura-2 AM (20 μM, 0.04% pleuronic acid, 32° C. for 1 h) in imaging buffer containing (in mM): 130 NaCl, 2.5 CaCl2, 0.6 MgCl2, 10 HEPES, 1.2 NaHCO3, 10 glucose, pH 7.45. Ratiometric Ca^2+ imaging was performed as previously described [O'dell, D. K., Rimmerman, N., Pickens, S. R. & Walker J. M. Fatty acyl amides of endogenous tetrahydroisoquinolines are active at the recombinant human TRPV1 receptor. Bioorg. Med. Chem. 15, 6164-6169 (2007)]. Drug was added to the bath following a period of baseline recording. Calcium measurements were made from 30 randomly selected cells per coverslip.
Data analysis of calcium imaging data. Analysis of calcium imaging data was done using a non-linear regression curve fit (Graphpad 4 Prism, San Diego, Calif.). t tests and one way ANOVA were calculated using SPSS (Chicago, Ill.). […] Averaged drug responses over 30 randomly selected cells per coverslip were analyzed with two-tailed unpaired t tests.

## CC(=O)OC1CC/C(C)=C/CC/C(C)=C/CC2(C(C)C)CCC1(C)O2 (stereo not shown) [IA, incensole acetate]
NO generation; LPS 1 μg/ml for 24 hrs, ANOVA P<0.0001
  NO generation (nitrite in supernatants), dose dependence: inhibited NO generation in a dose dependent manner
NO generation; at 80 μM, p=0.0022
  NO production: about 45%
TRPV3
  calcium influx in primary keratinocytes from TRPV3−/− mice: not from TRPV3
TRPV3; camphor 10 mM
  calcium influx in primary keratinocytes from WT mice: induced a calcium influx
